Reference: publication PMC3038857, “Using Nuclear Receptor Activity to Stratify Hepatocarcinogens” (PLoS ONE, 2011)

Assays:
Rat Liver [1] = conditions: chronic study, rat liver; ref ToxRefDB; cited from earlier work
Mouse Liver [2] = conditions: chronic study, mouse liver; ref ToxRefDB; cited from earlier work
CYP3A4 = experiment: CLZD_CYP3A4: Change in expression of CYP3A4 (primary human hepatocytes); format: cell-based; conditions: 24 hr
Summary of the method: (§1)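 Cultured primary human hepatocytes treated with chemicals for 6, 24 or 48 hr across five concentrations spanning 0.004-40 µM, then transcript level measured by quantitative nuclease protection in a multiplexed format.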

ABCB1 = experiment: CLZD_ABCB1: Change in expression of ABCB1 (primary human hepatocytes); format: cell-based; conditions: 24 hr
Description: This is a collection of multiplexed gene expression assays focused on Phase I and II xenobiotic metabolizing enzymes and transporters. Human primary cell cultures were treated with chemicals at 5 concentrations (0.004-40 [drawing 42] M) for 6, 24 and 48 hr. Concentration- and time-response profiles of chemicals were measured by the expression of key nuclear receptor target genes, activities of CYP1A enzymes (EROD), and cell morphology. Fourteen gene targets were monitored by quantitative nuclease protection assay including: six representative cytochrome P-450 genes, four hepatic transporters, three Phase II conjugating enzymes, and one endogenous metabolism gene involved in cholesterol synthesis. The target genes associated with nuclear receptor pathways are as follows: [drawing 43] and [drawing 44] with [drawing 45]; [drawing 46] , [drawing 47] , [drawing 48] , [drawing 49] , [drawing 50] and [drawing 51] with [drawing 52]; [drawing 53] , [drawing 54] , [drawing 55] and [drawing 56] with [drawing 57]; [drawing 58] with [drawing 59]; and [drawing 60] with [drawing 61] . Assays were run in primary human hepatocyte cultures by CellzDirect Invitrogen Inc. (Durham, NC), in collaboration with EPA.
Multiplexed Gene Expression in Human Primary Hepatocytes: This is a collection of multiplexed gene expression assays focused on Phase I and II metabolic enzymes and transporters. […] Fourteen gene targets were monitored by quantitative nuclease protection assay: six representative cytochrome P450 genes, four hepatic transporters, three Phase II conjugating enzymes, and one endogenous metabolism gene involved in cholesterol synthesis. Cells were exposed at 5 concentrations (0.004-40 µM) for 6, 24 or 48 hr. Gene targets are sentinels for five nuclear receptor signaling pathways: AhR, CAR, PXR, FXR, and PPARα. All gene are associated with nuclear receptor pathways: CYP1A1 and CYP1A2 with AHR; ABCB1, ABCG2, CYP2B6, CYP2C9, CYP2C19 and UGT1A1 with CAR; CYP3A4, GSTA2, SLCO1B1 and SULT2A1 with PXR; HMGCS2 with PPARA; and ABCB11 with FXR. […] Detailed description of the methods, data and analysis methods for this dataset will be presented in a separate publication.

Rat Liver [3] = conditions: chronic study, rat liver; ref ToxRefDB; cited from earlier work; remark: listed apart in the source
PXR (NR1I2) [4] = molecular target: T1, PXR (NR1I2) (Homo sapiens, UniProt O75469); experiment: ATG_PXR_TRANS: Factorial reporter gene assay (HepG2); format: cell-based; parameters: endogenous in cells; host or cells: HepG2; conditions: HepG2 reporter
T1 sequence (O75469 1-434): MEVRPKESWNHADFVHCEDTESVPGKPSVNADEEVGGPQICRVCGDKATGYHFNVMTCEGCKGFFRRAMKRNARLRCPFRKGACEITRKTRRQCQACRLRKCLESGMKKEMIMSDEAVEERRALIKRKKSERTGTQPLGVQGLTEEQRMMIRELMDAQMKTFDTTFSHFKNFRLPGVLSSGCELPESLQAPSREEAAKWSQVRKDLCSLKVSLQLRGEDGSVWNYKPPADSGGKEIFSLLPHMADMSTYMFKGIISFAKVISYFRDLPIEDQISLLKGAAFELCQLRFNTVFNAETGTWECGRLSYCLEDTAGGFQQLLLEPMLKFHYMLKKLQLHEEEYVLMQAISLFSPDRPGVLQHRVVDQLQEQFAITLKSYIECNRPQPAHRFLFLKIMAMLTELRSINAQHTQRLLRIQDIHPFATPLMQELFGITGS
Summary of the method: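 Seven concentrations per chemical, three-fold dilutions down from the MTC, were tested in HepG2 hepatoma cells. Those cells carried a multiple reporter transcription unit library, read either as cis transcription-factor-site reporters or as a trans mammalian one-hybrid panel for nuclear receptors.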

Mouse Liver [5] = conditions: chronic study, mouse liver; ref ToxRefDB; cited from earlier work; remark: listed apart in the source
Mouse Liver [6] = conditions: chronic study, mouse liver; ref ToxRefDB; cited from earlier work; remark: listed apart in the source
CYP2B6 = experiment: CLZD_CYP2B6: Change in expression of CYP2B6 (primary human hepatocytes); format: cell-based; conditions: 24 hr
Summary of the method: as §1

Rat Liver [7] = conditions: chronic study, rat liver; ref ToxRefDB; cited from earlier work; remark: listed apart in the source
PXR (NR1I2) [8] = molecular target: T1, PXR (NR1I2); experiment: ATG_PXRE_CIS: Factorial reporter gene assay (HepG2); format: cell-based; parameters: endogenous in cells; host or cells: HepG2; conditions: HepG2 reporter
Summary of the method: (§2)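 CIS (PXRE): HepG2 transfected with 48 TF-binding-site MRTU library. TRANS (ERRg, FXR, PPARg): one-hybrid format, extra 25 nuclear-receptor MRTUs. 7 concs, top = MTC, 3-fold serial dilution.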

PXR Human (NR1I2) = molecular target: T2, PXR Human (NR1I2) (Homo sapiens, UniProt O75469); experiment: NCGC_PXR_Agonist_human: GAL4 BLAM Reporter gene assay: PXR Human; format: cell-based; conditions: agonist mode
T2 sequence (O75469 146-434 limits assumed): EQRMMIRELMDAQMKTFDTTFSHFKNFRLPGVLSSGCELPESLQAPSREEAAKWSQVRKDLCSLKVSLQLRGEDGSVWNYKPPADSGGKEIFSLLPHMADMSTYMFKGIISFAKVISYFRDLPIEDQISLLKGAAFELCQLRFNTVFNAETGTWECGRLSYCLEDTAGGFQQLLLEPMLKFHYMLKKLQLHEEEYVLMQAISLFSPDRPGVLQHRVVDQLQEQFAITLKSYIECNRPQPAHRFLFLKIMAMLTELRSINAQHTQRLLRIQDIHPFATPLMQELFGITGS
Description: These assays measure binding constants and enzyme inhibition values for nuclear receptors. The targets include [drawing 67] , [drawing 68] , [drawing 69] , [drawing 70] , [drawing 71] , [drawing 72] , [drawing 73] , [drawing 74] , [drawing 75] and [drawing 76] . Each of the nuclear receptor targets was measured in agonist mode. Assays were run at the NIH Chemical Genomics Center (Rockville, MD).
Cell-based HTS Assays: These assays measuring binding constants and enzyme inhibition values for nuclear receptors. The targets include AR, ER, FXR, LXR, PPARα, PPARδ, PPARγ, RXRα, RXRβ and PXR. Each of the nuclear receptor targets was measured in both agonist and antagonist mode, but the antagonist data is still undergoing analysis due to possible interference between cytotoxicity and assay activity, so antagonist mode data were not used in the present analysis. Assays were run at the NIH Chemical Genomics Center (Rockville, MD) as part of the Tox21 collaboration. […] The R^2 was required to be ≥0.5. Values where only the highest concentration exceeded 50% activity were excluded to eliminate weak or false positives. Detailed description of the methods, data and analysis methods for this dataset will be presented in a separate publication.

PXR (NR1I2) [9] = molecular target: T1, PXR (NR1I2); experiment: NVS_NR_hPXR: Human PXR Fluormone PXR (SXR) green (cell-free HTS); format: binding
Summary of the method: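 Cell-free biochemical binding assays; chemicals first screened at a single concentration of 25 […] M in duplicate wells. Signals normalised to same-plate solvent controls as percent of neutral control, and AC50 values came from Hill-equation fits of concentration-response curves.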

CYP1A1 = experiment: CLZD_CYP1A1: Change in expression of CYP1A1 (primary human hepatocytes); format: cell-based; conditions: 24 hr
Summary of the method: as §1

LXRb (NR1H2) = molecular target: T3, LXRb (NR1H2) (Homo sapiens, UniProt P55055); experiment: ATG_LXRb_TRANS: Factorial reporter gene assay (HepG2); format: cell-based; conditions: HepG2 reporter
T3 construct: expressed in transfected cells; host or cells: HepG2
T3 sequence (P55055 1-460): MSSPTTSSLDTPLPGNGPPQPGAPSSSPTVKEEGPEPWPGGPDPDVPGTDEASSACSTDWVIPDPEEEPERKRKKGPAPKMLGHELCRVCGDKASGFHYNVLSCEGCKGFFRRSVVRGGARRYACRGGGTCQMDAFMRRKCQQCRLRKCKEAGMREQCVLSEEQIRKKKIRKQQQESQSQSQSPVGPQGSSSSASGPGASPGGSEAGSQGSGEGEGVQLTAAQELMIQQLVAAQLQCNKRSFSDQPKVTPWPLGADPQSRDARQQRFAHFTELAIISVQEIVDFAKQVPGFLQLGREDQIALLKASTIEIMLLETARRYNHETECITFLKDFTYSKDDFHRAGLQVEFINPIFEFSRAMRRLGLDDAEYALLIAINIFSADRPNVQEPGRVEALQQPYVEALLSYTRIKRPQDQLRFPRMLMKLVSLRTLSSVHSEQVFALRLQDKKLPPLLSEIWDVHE
Description: A multiple reporter transcription unit (MRTU) library consisting of 48 transcription factor binding sites was transfected into the HepG2 human liver hepatoma cell line. In addition to the cis-acting reporter genes (CIS), a modification of the approach was used to generate a trans-system (TRANS) with a mammalian one-hybrid assay consisting of an additional 25 MRTU library reporting the activity of nuclear receptor super-family members. […] These assays were performed by Attagene Inc. (Morrisville NC) under contract to EPA.
In addition to the cis-acting reporter genes (CIS), a modification of the approach was used to generate a trans-system (TRANS) with a mammalian one-hybrid assay consisting of an additional 25 MRTU library reporting the activity of nuclear receptor super-family members. […] Chemicals were then tested in the CIS and TRANS assays at seven concentrations starting at the MTC and followed by three-fold serial dilutions. These assays were performed by Attagene Inc. (Morrisville NC) under contract to EPA. Detailed description of the methods, data and analysis methods for this dataset will be presented in a separate publication.

CYP1A2 = experiment: CLZD_CYP1A2: Change in expression of CYP1A2 (primary human hepatocytes); format: cell-based; conditions: 24 hr
Summary of the method: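 Read-out: mRNA change by multiplexed quantitative nuclease protection assay. Primary human hepatocytes; 5 concentrations, 0.004-40 µM; exposures 6, 24, 48 hr.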

[10] = molecular target: T4, PPARG (peroxisome proliferator-activated receptor gamma) (Homo sapiens, UniProt P37231); experiment: ATG_PPARg_TRANS: Factorial reporter gene assay (HepG2); format: cell-based; conditions: HepG2 reporter
T4 construct: expressed in transfected cells; host or cells: HepG2
T4 sequence (P37231 1-505): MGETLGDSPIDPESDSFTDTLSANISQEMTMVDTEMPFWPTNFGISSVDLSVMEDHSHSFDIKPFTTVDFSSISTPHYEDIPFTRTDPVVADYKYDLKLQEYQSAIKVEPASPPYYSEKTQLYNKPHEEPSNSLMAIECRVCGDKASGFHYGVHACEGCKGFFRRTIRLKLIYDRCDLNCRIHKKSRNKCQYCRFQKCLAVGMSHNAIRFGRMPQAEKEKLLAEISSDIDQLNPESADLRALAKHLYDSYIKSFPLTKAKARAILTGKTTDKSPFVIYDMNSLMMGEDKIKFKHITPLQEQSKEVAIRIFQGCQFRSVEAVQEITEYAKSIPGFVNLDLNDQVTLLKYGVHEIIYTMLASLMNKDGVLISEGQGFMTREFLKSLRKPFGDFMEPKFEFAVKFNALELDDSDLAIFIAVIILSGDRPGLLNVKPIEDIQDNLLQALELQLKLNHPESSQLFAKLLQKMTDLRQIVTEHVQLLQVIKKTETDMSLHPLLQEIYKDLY
Summary of the method: as §2

Structure (SMILES) | CHR_Rat_Liver_3_NeoplasticLesion (Rat Liver [1]) | CHR_Mouse_Liver_2_PreneoplasticLesion (Mouse Liver [2]) | CLZD_CYP3A4_24 (CYP3A4) | CLZD_ABCB1_24 (ABCB1) | CHR_Rat_Liver_2_PreneoplasticLesion (Rat Liver [3]) | ATG_PXR_TRANS (PXR (NR1I2) [4]) | CHR_Mouse_Liver_3_NeoplasticLesion (Mouse Liver [5]) | CHR_Mouse_Liver_1_AnyLesion (Mouse Liver [6]) | CLZD_CYP2B6_24 (CYP2B6) | CHR_Rat_Liver_1_AnyLesion (Rat Liver [7]) | ATG_PXRE_CIS (PXR (NR1I2) [8]) | NCGC_PXR_Agonist_human (PXR Human (NR1I2)) | NVS_NR_hPXR (PXR (NR1I2) [9]) | CLZD_CYP1A1_24 (CYP1A1) | ATG_LXRb_TRANS (LXRb (NR1H2)) | CLZD_CYP1A2_24 (CYP1A2) | ATG_PPARg_TRANS [10]
C#CC(C)(C)NC(=O)c1cc(Cl)cc(Cl)c1 [r265] | 0 | 6 | 4.621 | 5.227 | 0 | 4.409 | 6 | 6 | 5.253 | 6 | 4.824 | 4.619 | 4.411 | – | – | – | –
Cc1[nH]c(=O)n(C(C)(C)C)c(=O)c1Cl [r296] | – | 6 | – | – | – | – | 6 | 6 | 5.239 | – | – | – | – | 5.327 | 4.119 | – | –
Cc1cc(C)nc(Nc2ccccc2)n1 [r273] | 0 | – | – | – | 6 | – | – | – | 5.27 | 6 | – | – | – | 4.775 | 4.237 | 4.839 | 4.137
CC/C(=N\OC/C=C/Cl)C1=C(O)CC(C2CCOCC2)CC1=O (stereo not shown) [r295] | 6 | 6 | – | – | 6 | – | 6 | 6 | – | 6 | – | – | – | – | 4.194 | – | –
